Test results taken from ChEMBL document CHEMBL1147698, “Design of a potent, soluble glucokinase activator with excellent in vivo efficacy” (Bioorg Med Chem Lett, 2006).
In brackets after ≈: the same amount, converted by molar mass.

Key:
[1] = Percent of unbound ligand in rat plasma; assay type: ADME, organism-based
[2] = Intrinsic clearance in rat per 10^6 cells; assay type: ADME
Rattus norvegicus [3] = species on record: Rattus norvegicus; assay: Unbound clearance in rat; assay type: ADME, organism-based; details: in vivo
[4] = Clearance in rat; assay type: ADME, organism-based; details: in vivo
[5] = Clearance in dog; assay type: ADME, organism-based, Canis lupus familiaris; details: in vivo
[6] = Solubility of the compound; assay type: physicochemical
[7] = Bioavailability in rat; assay type: ADME, organism-based; details: in vivo
Rattus norvegicus [8] = species on record: Rattus norvegicus; assay: Decrease in glucose level in Zucker rat by oral glucose tolerance test; assay type: ADME, organism-based; details: in vivo
Canis familiaris [9] = species on record: Canis familiaris; assay: Unbound clearance in dog; assay type: ADME, organism-based, Canis lupus familiaris; details: in vivo
[10] = Bioavailability in dog; assay type: ADME, organism-based, Canis lupus familiaris; details: in vivo
[11] = Intrinsic clearance in dog per 10^6 cells; assay type: ADME, Canis lupus familiaris; details: not recorded
Rattus norvegicus [12] = assay: Decrease in glucose level in Zucker rat at 3 mg/kg, po by oral glucose tolerance test; assay type: ADME, organism-based; design: dose 3 mg/kg, route oral; details: in vivo
Hexokinase-4 = target: T1, Hexokinase-4 (Homo sapiens, UniProt P35557)
T1 sequence (P35557 whole entry): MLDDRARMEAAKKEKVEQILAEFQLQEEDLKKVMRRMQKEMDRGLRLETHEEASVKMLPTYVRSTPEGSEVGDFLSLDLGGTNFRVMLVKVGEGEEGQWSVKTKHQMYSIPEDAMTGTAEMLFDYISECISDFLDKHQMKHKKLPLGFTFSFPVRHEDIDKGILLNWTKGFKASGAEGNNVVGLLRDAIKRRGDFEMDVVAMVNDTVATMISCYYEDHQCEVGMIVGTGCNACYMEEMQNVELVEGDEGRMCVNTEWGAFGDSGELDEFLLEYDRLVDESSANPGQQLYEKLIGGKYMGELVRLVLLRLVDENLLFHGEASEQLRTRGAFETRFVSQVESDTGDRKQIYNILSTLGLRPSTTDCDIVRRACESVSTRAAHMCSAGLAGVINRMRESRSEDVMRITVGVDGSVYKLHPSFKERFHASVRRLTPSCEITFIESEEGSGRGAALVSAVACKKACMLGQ
Description: Activation of glucokinase

Rattus norvegicus [13] = assay: Decrease in glucose level in Zucker rat at 1 mg/kg, po by oral glucose tolerance test; assay type: ADME, organism-based; design: dose 1 mg/kg, route oral; details: in vivo
Canis familiaris [14] = species on record: Canis familiaris; assay: Clearance in dog measured as percent of hepatic blood flow; assay type: ADME, organism-based, Canis lupus familiaris, Liver; details: in vivo
Rattus norvegicus [15] = species on record: Rattus norvegicus; assay: Hepatic blood flow in rat; assay type: ADME, organism-based, Liver
[16] = Percent of unbound ligand in dog plasma; assay type: ADME, organism-based, Canis lupus familiaris
Canis familiaris [17] = species on record: Canis familiaris; assay: Hepatic blood flow in dog; assay type: ADME, organism-based, Canis lupus familiaris, Liver
Rattus norvegicus [18] = species on record: Rattus norvegicus; assay: Clearance in rat measured as percent of hepatic blood flow; assay type: ADME, organism-based, Liver; details: in vivo

hepatocyte CLint [2] [µL/min/1e6 cells] | SMILES | fraction unbound [1] | CL/F (Rattus norvegicus [3]) [mL/min/kg] | solubility [6] [µM] | bioavailability [7] [%] | EC50 (Hexokinase-4) [nM] | also measured
< 1 | CC(C)Oc1cc(OCc2ccccc2)cc(C(=O)Nc2ccc(C(=O)O)cn2)c1 | 0.002 | 1850 | – | – | – | clearance [4]: 3.7 mL/min/kg
– | COC[C@H](C)Oc1cc(O[C@@H](C)Cc2ccccc2)cc(C(=O)Nc2ccc(C(=O)O)cn2)c1 | – | 475 | 1350 (≈ 627 µg/mL) | 99 | – | clearance [5]: 4.4 mL/min/kg; Activity (Rattus norvegicus [8]): Dose-dependent effect; CL/F (Canis familiaris [9]): 301 mL/min/kg; bioavailability [10]: 100%; hepatocyte CLint [11]: < 1 µL/min/1e6 cells
– | CC(C)Oc1cc(O[C@@H](C)Cc2ccccc2)cc(C(=O)Nc2ccc(C(=O)O)cn2)c1 | – | 1435 | 8 (≈ 3.48 µg/mL) | 85 | 20 | Activity (Rattus norvegicus [12]): Active
– | COC[C@@H](C)Oc1cc(OC(C)C)cc(C(=O)Nc2ccc(C(=O)O)cn2)c1 | 0.0622 | – | – | – | 5510 | –
– | CC(C)Oc1cc(O[C@H](C)c2ccccc2)cc(C(=O)Nc2ccc(C(=O)O)cn2)c1 | 0.0048 | – | – | – | 950 | –
– | COC[C@H](C)Oc1cc(OC(C)C)cc(C(=O)Nc2ccc(C(=O)O)cn2)c1 | 0.0534 | 43 | > 3140 | 100 | 610 | clearance [4]: 2.3 mL/min/kg; Activity (Rattus norvegicus [13]): Active
< 1 | CC(C)Oc1cc(OCCc2ccsc2)cc(C(=O)Nc2ccc(C(=O)O)cn2)c1 | 0.0026 | 1461 | – | – | – | clearance [5]: 8.7 mL/min/kg; %LBF (Canis familiaris [14]): 28%; Activity (Rattus norvegicus [15]): 72 mL/min/kg; fraction unbound [16]: 0.0064; CL/F (Canis familiaris [9]): 1359 mL/min/kg; Activity (Canis familiaris [17]): 31 mL/min/kg; %LBF (Rattus norvegicus [18]): 5.3%; hepatocyte CLint [11]: < 1 µL/min/1e6 cells
– | CC(C)Oc1cc(O[C@H](C)Cc2ccccc2)cc(C(=O)Nc2ccc(C(=O)O)cn2)c1 | 0.0023 | – | – | – | 90 | –

SMILES | hepatocyte CLint [2] [µL/min/1e6 cells] | fraction unbound [1] | CL/F (Rattus norvegicus [3]) [mL/min/kg] | solubility [6] [µM] | bioavailability [7] [%] | EC50 (Hexokinase-4) [nM] | also measured
CC(C)Oc1cc(O[C@@H](C)c2ccccc2)cc(C(=O)Nc2ccc(C(=O)O)cn2)c1 | < 1 | – | 171 | – | – | 110 | –
